Experimental data from BigSolDB 2.1.

CC(C)=CCOc1c2occc2cc2ccc(=O)oc12
solubility (mole fraction)
Settings | 288.2 K | 293.2 K | 298.2 K | 303.2 K | 308.2 K | 313.2 K | 318.2 K | 323.2 K | 328.2 K
in ethanol | 0.00325 | 0.00454 | 0.0063 | 0.00865 | 0.0118 | 0.016 | 0.0215 | 0.0288 | 0.0382
in water | 7.4e-07 | 1.03e-06 | 1.06e-06 | 1.03e-06 | 1.35e-06 | 1.46e-06 | 1.5e-06 | 1.53e-06 | 1.81e-06
